Laboratory results from patent publication US9657110B2, “Polypeptides and use thereof” (ASTON UNIVERSITY, priority 2011, dated 2017).
One block for each molecule: values may come before it.

Columns and labels:
HOB cells = experiment: Cell adhesion assay (attachment and spreading) on FN or TG-FN matrix with RGD or RAD peptide; type: cell-based, human; details: for effect of PKCα inhibitors on the compensatory effect of P1 peptide on RGD-induced loss of cell adhesion: Go6976 5 μM, GK21 8 μM, P1 100 ug/ml, FN; for effect on the compensatory effects of TG-FN on attachment and spreading in the presence of RGD: HOB cells on TG-FN, peptide 100-400 μg/ml, RGD 150 μg/ml
Method: The cell adhesion assay was carried out as previously described (Wang et al., 2010). Briefly, 96-well plastic tissue culture plates were coated with 5 μg/ml FN in 50 mM Tris-HCl, pH 7.4 at 4° C. overnight, after washing three times with 100 μl of 50 mM Tris-HCl, pH7.4, gplTG (20 μg/ml) in 2 mM EDTA in PBS, pH 7.4 was added to the wells for 1 h at 37° C. and the wells were washed three times with 50 mM Tris-HCl, pH7.4. Serum-starved (for 16 h) HOB cells with different treatments as introduced below in serum-free medium were detached by trypsinization and then treated with trypsin inhibitor. Cells were washed three times with serum free medium and seeded onto either FN or TG-FN matrix for 20-40 min. Peptides P1 or scrambled P1 (P1s), were added at concentrations between 100 μg/ml and 300 μg/ml. […] Attached cells were washed once with PBS, pH 7.4 and then fixed with 3.7% paraformaldehyde, further permeabilised with 0.1% (v/v) Triton® X-100 detergent in PBS, and co-stained with May-Grunwald and Giemsa stains as described previously (Jones et al., 1997). Images of stained cells from non-overlapping fields of view were photographed at 20× magnification and analyzed using the imaging analysis program Scion Image (National Institute of Health). Cell attachment and spreading were quantified, and the number of cells per image was assessed as described previously (Telci et al., 2008). Cell attachment on FN without peptide was considered as the control value for all the experiments unless stated otherwise. The mean number of attached cells form three wells was calculated and that of the control was considered as 100%. The mean number of attached cells (cell attachment) for each sample was then expressed as the percentage of cell attachment on FN. The mean percentage of attached cells that are spread (cell spreading) for each sample was determined separately, and the mean percentage of spread cells on FN control was expressed as 100%. The mean percentage of spread cells for each sample was then normalised against that of FN control Cell attachment on FN without the RGD peptide was considered as the control value for most of the experiments unless stated otherwise The mean number of attached cells from three wells was calculated and that of the control was considered as 100%. The mean number of attached cells (cell attachment) for each sample was then expressed as the percentage of cell attachment on FN. The mean percentage of attached cells that are spread (cell spreading) for each sample was determined separately, and the mean percentage of spread cells on the FN control was expressed as 100%. The mean percentage of spread cells for each sample was then normalised against that of FN control Cell pre-treatments included: PKCα inhibitor Go6976 (5 μM) or GK21 peptide (8 μM) for 1 h in serum-free medium prior to cell detachment; heparinase (15 mU/ml) or chondroitinase (15 mU/ml) to cells in suspension in serum free medium for 1 h. For the detection of the signalling molecules via Western blotting, the cell adhesion assay was performed in 60 mm Petri dishes and cells were collected into cell lysis buffer (Santa Cruz, UK) as described previously and pre-cleared by centrifugation at 300×g for 10 min. Western blotting was performed with specific anti-p-397 FAK or p-ERK1/2 antibodies. Membranes were stripped (Telci et al., 2008) and total FAK and ERK1/2 detected using anti-FAK and anti-ERK1/2 antibodies as listed in Table 2, while α-tubulin was used as an equal loading standard (Wang et al., 2011).
Cell adhesion and spreading assays were performed as described above in Example 1 method ‘Cell adhesion assay’

[1] = Binding of TG2 to heparin SEPHAROSE, elution with NaCl gradient; details: for binding to heparin SEPHAROSE (in words): compared with wt TG2; for NaCl concentration of optimum elution / major peak from heparin SEPHAROSE: lysate of HEK293T/17 cells, 0-1M NaCl gradient
Method: HEK cells, transiently transfected with wild-type and mutant TG2 were washed twice with ice cold PBS, pH 7.4 and lysed by the addition of 150 μl of 20 mM Tris-HCl pH 7.4, 10 mM EGTA, 2 mM EDTA, 1 mM NaF and 1 mM Na3VO4. After clarification by centrifugation, lysates were mixed with 450 μl of 50 mM Tris-HCl, 1 mM EDTA, 1 mM DTT, pH 7.5 and applied to a 5 ml Heparin SEPHAROSE® column (GE Healthcare) equilibrated in 50 mM Tris-HCl, 1 mM EDTA, 1 mM DTT pH 7.5 (buffer) at a flow rate of 1 ml/min. For the analysis of GTP-bound TG2 (closed conformation), lysates were pre-incubated for 1 h at room temperature with 0.5 mM GTP in 50 mM Tris-HCl, 2 mM MgCl2, 1 mM EDTA, 1 mM DTT pH 7.5. For the analysis of inhibitor-reacted TG2 (open conformation), lysates were incubated with 0.5 mM of irreversible inhibitor R281 (Griffin et al., 2008) and 10 mM CaCl2. The column was washed with 25 ml of buffer and protein was eluted with a linear gradient of increasing NaCl concentration (0-1M) in buffer. Fractions were assayed for TG2 activity and analysed for the presence of TG2 antigen by SDS-PAGE and Western blotting using CUB7402.

NIH 3T3 cells = experiment: Detection of TG2 at cell surface (biotinylation), in ECM and in culture medium of transfected cells; type: cell-based, mouse; details: transfected NIH 3T3 cells; for presence on the cell surface: biotinylation and Western blot, vs wild-type TG2
Method: Cell surface proteins were labelled by biotinylation as described previously (Wang et al., 2010). Briefly, cell monolayers were rinsed three times with ice-cold PBS pH 8.0 and labelled with 0.8 mM sulfo-NHS-LC-biotin dissolved in PBS pH 8.0 at 4° C. for 20 min. Cells were then washed with 50 mM Tris-HCl, pH 8.0 and lysed with 1% SDS at 4° C. in PBS pH8.0. Following denaturation at 95° C., cell lysates were clarified by centrifugation at 14,000×g at 20° C. and 200 μg of protein was incubated overnight at 4° C. with NEUTRAVIDIN® avidin protein-Agarose resin. After washing three times with PBS pH 8.0, the biotin-labelled proteins were dissolved in 2× Laemmli buffer separated by SDS-PAGE and subjected to Western blotting.
Following transfection, cells were incubated for 24 h with 10% (v/v) serum, which was replaced with 1% (v/v) serum and TG2 expression was allowed to proceed for a further 48 h. Proteins from 1 ml of medium were precipitated by the addition of ice cold 20% (w/v) trichloroacetic acid (TCA) to a final concentration of 10% (w/v) Pelleted proteins were then washed once with ice cold 10% (w/v) TCA, ethanol-acetone (1:1) and acetone, and resuspended in 2× Laemmli buffer (Sigma-Aldrich, UK) and analysed by SDS-PAGE and Western blot analysis using monoclonal anti-TG2 antibody (Cub7402). The remaining cells were detached with 2 mM EDTA in PBS, pH 7.4 and the ECM was extracted with 0.1% (w/v) deoxycholate in PBS, pH 7.4. The residual deoxycholate-insoluble ECM proteins were dissolved in 2× Laemmli buffer for further analysis by SDS-PAGE and Western blotting using Cub7402.

Molecule: Cn1c2ccccc2c2c3c(c4c5ccccc5n(CCC#N)c4c21)CNC3=O [Go6976, reference compound]
effect of PKCα inhibitors on the compensatory effect of P1 peptide on RGD-induced loss of cell adhesion (HOB cells): inhibition of the compensatory effect

Molecule: GENPIYKSAVTTVVNPIYEGKRQIKIWFQNRRMKWKK (listed as Homo sapiens) [GK21, reference compound]
effect of PKCα inhibitors on the compensatory effect of P1 peptide on RGD-induced loss of cell adhesion (HOB cells): inhibition of the compensatory effect

Molecule: GRDCSRRSS (listed as Homo sapiens) [fragment peptide derived from P1]
effect on the compensatory effects of TG-FN on attachment and spreading in the presence of RGD (HOB cells): able to inhibit the compensatory effects of TG-FN on attachment and spreading, in a dose-dependent manner

Molecule: NPKFLKNA (listed as Homo sapiens) [fragment peptide derived from P1]
effect on the compensatory effects of TG-FN on attachment and spreading in the presence of RGD (HOB cells): could not abrogate
concentration at which peptide was inhibitory to cell attachment and spreading (HOB cells; HOB cells, tested 100-400 μg/ml): above 200 μg/ml

More lines, main results first:

NaCl concentration of optimum elution / major peak from heparin SEPHAROSE [1]: 60 mM NaCl
Molecule: HS2: TG2 mutant K205A, R209A (NPKFLKNAGRDCSRRSS)
binding to heparin SEPHAROSE (in words) [1]: lost the capability to bind with high affinity to heparin
presence in spent culture medium (NIH 3T3 cells; Western blot): detectable
presence in the ECM (NIH 3T3 cells; Western blot): not detectable
presence on the cell surface (NIH 3T3 cells): detected but in reduced amounts

NaCl concentration of major peak from heparin SEPHAROSE in the presence of GTP ([1]; 0.5 mM GTP, compact conformation): about 330 mM NaCl
NaCl concentration of major peak from heparin SEPHAROSE after reaction with inhibitor R281 ([1]; 0.5 mM R281, extended conformation): 250 mM NaCl
NaCl concentration of optimum elution / major peak from heparin SEPHAROSE [1]: 330 mM NaCl
B1: TG2: wild type human tissue transglutaminase expressed in transfected cells (protein)
chain: AEELVLERCDLELETNGRDHHTADLCREKLVVRRGQPFWLTLHFEGRNYEASVDSLTFSVVTGPAPSQEAGTKARFPLRDAVEEGDWTATVVDQQDCTLSLQLTTPANAPIGLYRLSLEASTGYQGSSFVLGHFILLFNAWCPADAVYLDSEEERQEYVLTQQGFIYQGSAKFIKNIPWNFGQFEDGILDICLILLDVNPKFLKNAGRDCSRRSSPVYVGRVVSGMVNCNDDQGVLLGRWDNNYGDGVSPMSWIGSVDILRRWKNHGCQRVKYGQCWVFAAVACTVLRCLGIPTRVVTNYNSAHDQNSNLLIEYFRNEFGEIQGDKSEMIWNFHCWVESWMTRPDLQPGYEGWQALDPTPQEKSEGTYCCGPVPVRAIKEGDLSTKYDAPFVFAEVNADVVDWIQQDDGSVHKSINRSLIVGLKISTKSVGRDEREDITHTYKYPEGSSEEREAFTRANHLNKLAEKEETGMAMRIRVGQSMNMGSDFDVFAHITNNTAEEYVCRLLLCARTVSYNGILGPECGTKYLLNLNLEPFSEKSVPLCILYEKYRDCLTESNLIKVRALLVEPVINSYLLAERDLYLENPEIKIRILGEPKQKRKLVAEVSLQNPLPVALEGCTFTVEGAGLTEEQKTVEIPDPVEAGEEVKVRMDLLPLHMGLHKLVVNFESDKLKAVKGFRNVIIGPA

NaCl concentration of optimum elution / major peak from heparin SEPHAROSE [1]: 250 mM NaCl
B2: C277S: TG2 active site mutant, extended conformation (protein, UniProt P21980 2-687, looked up, variant C277S)
Protein-glutamine …: AEELVLERCDLELETNGRDHHTADLCREKLVVRRGQPFWLTLHFEGRNYEASVDSLTFSVVTGPAPSQEAGTKARFPLRDAVEEGDWTATVVDQQDCTLSLQLTTPANAPIGLYRLSLEASTGYQGSSFVLGHFILLFNAWCPADAVYLDSEEERQEYVLTQQGFIYQGSAKFIKNIPWNFGQFEDGILDICLILLDVNPKFLKNAGRDCSRRSSPVYVGRVVSGMVNCNDDQGVLLGRWDNNYGDGVSPMSWIGSVDILRRWKNHGCQRVKYGQSWVFAAVACTVLRCLGIPTRVVTNYNSAHDQNSNLLIEYFRNEFGEIQGDKSEMIWNFHCWVESWMTRPDLQPGYEGWQALDPTPQEKSEGTYCCGPVPVRAIKEGDLSTKYDAPFVFAEVNADVVDWIQQDDGSVHKSINRSLIVGLKISTKSVGRDEREDITHTYKYPEGSSEEREAFTRANHLNKLAEKEETGMAMRIRVGQSMNMGSDFDVFAHITNNTAEEYVCRLLLCARTVSYNGILGPECGTKYLLNLNLEPFSEKSVPLCILYEKYRDCLTESNLIKVRALLVEPVINSYLLAERDLYLENPEIKIRILGEPKQKRKLVAEVSLQNPLPVALEGCTFTVEGAGLTEEQKTVEIPDPVEAGEEVKVRMDLLPLHMGLHKLVVNFESDKLKAVKGFRNVIIGPA

binding to heparin SEPHAROSE (in words) [1]: bound heparin identically to TG2
B3: HS1: TG2 mutant K600A, R601A, K602A (protein, UniProt P21980 2-687, looked up, variant K600A R601A K602A)
Protein-glutamine …: AEELVLERCDLELETNGRDHHTADLCREKLVVRRGQPFWLTLHFEGRNYEASVDSLTFSVVTGPAPSQEAGTKARFPLRDAVEEGDWTATVVDQQDCTLSLQLTTPANAPIGLYRLSLEASTGYQGSSFVLGHFILLFNAWCPADAVYLDSEEERQEYVLTQQGFIYQGSAKFIKNIPWNFGQFEDGILDICLILLDVNPKFLKNAGRDCSRRSSPVYVGRVVSGMVNCNDDQGVLLGRWDNNYGDGVSPMSWIGSVDILRRWKNHGCQRVKYGQCWVFAAVACTVLRCLGIPTRVVTNYNSAHDQNSNLLIEYFRNEFGEIQGDKSEMIWNFHCWVESWMTRPDLQPGYEGWQALDPTPQEKSEGTYCCGPVPVRAIKEGDLSTKYDAPFVFAEVNADVVDWIQQDDGSVHKSINRSLIVGLKISTKSVGRDEREDITHTYKYPEGSSEEREAFTRANHLNKLAEKEETGMAMRIRVGQSMNMGSDFDVFAHITNNTAEEYVCRLLLCARTVSYNGILGPECGTKYLLNLNLEPFSEKSVPLCILYEKYRDCLTESNLIKVRALLVEPVINSYLLAERDLYLENPEIKIRILGEPKQAAALVAEVSLQNPLPVALEGCTFTVEGAGLTEEQKTVEIPDPVEAGEEVKVRMDLLPLHMGLHKLVVNFESDKLKAVKGFRNVIIGPA
presence on the cell surface (NIH 3T3 cells): greater levels
